From paper PMC12547752, “Silodosin as a Novel Inhibitor of Acetylcholinesterase, Butyrylcholinesterase, and BETA-Secretase 1: In Vitro and In Silico Studies” (ACS Omega, 2025)

Target: T1, butyrylcholinesterase (BuChE) (Equus caballus, UniProt P81908)
T1 construct: gene BCHE
Assay: Ellman colorimetric assay with equine serum BuChE, concentration-response
Type: biochemical

T1 sequence (P81908 whole entry): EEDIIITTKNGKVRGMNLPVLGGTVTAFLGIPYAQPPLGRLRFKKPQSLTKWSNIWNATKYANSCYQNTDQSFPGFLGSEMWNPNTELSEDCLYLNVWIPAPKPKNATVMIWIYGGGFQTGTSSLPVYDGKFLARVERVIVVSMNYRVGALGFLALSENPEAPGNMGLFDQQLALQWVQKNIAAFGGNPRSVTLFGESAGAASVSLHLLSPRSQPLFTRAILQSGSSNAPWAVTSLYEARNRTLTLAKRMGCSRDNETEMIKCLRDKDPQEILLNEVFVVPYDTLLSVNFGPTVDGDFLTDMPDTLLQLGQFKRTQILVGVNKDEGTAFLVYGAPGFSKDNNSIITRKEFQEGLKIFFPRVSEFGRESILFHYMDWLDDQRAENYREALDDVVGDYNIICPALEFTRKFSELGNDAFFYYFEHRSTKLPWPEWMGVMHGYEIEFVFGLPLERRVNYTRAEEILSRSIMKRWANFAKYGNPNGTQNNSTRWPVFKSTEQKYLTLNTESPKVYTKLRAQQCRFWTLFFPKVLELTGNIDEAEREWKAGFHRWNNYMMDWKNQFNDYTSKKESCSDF

**Q.** For `C[C@H](Cc1cc2c(c(C(N)=O)c1)N(CCCO)CC2)NCCOc1ccccc1OCC(F)(F)F` [silodosin], which IC50 is on record?
**A.** 3.02 ± 0.05 µM
